Laboratory results reported in PubChem BioAssay (NCI).
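Here, GI50 denotes the concentration required for 50% inhibition of growth. At the TGI there is no net growth.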

Columns and labels:
Experiment in all cases: inhibition of tumour cell growth, NCI panel, 384-well format
[1] = test system: ACHN renal
[2] = test system: RXF 393 renal
[3] = test system: NCI-H23 lung
[4] = test system: CAKI-1 renal
[5] = test system: BT-549 breast
[6] = test system: MOLT-4 leukemia
[7] = test system: SN12C renal
[8] = test system: NCI-H460 NSCLC
[9] = test system: SK-OV-3 ovarian
[10] = test system: U251 glioblastoma
[11] = test system: UO-31 renal
[12] = test system: MALME-3M melanoma
[13] = test system: PC-3 prostate

CCS(=O)(=O)N1CCC(C(C)n2c(C)c(C(=O)NCc3c(OC)cc(C)[nH]c3=O)c3ccccc32)CC1 (stereo unspecified)
GI50 [1]: > 100 µM
TGI [1]: > 100 µM
GI50 [2]: > 100 µM
TGI [2]: > 100 µM
GI50 [3]: > 100 µM
TGI [3]: > 100 µM
GI50 [4]: > 100 µM
TGI [4]: > 100 µM
GI50 [5]: > 100 µM
TGI [5]: > 100 µM
GI50 [6]: 42.4 µM
TGI [6]: > 100 µM
GI50 [7]: > 100 µM
TGI [7]: > 100 µM
GI50 [8]: > 100 µM
TGI [8]: > 100 µM
GI50 [9]: > 100 µM
TGI [9]: > 100 µM
GI50 [10]: > 100 µM
TGI [10]: > 100 µM
GI50 [11]: > 100 µM
TGI [11]: > 100 µM
GI50 [12]: > 100 µM
TGI [12]: > 100 µM
GI50 [13]: > 100 µM
TGI [13]: > 100 µM
